Our source for the IC50 values is patent US20210387996A1, “TRICYCLIC COMPOUNDS FOR THE TREATMENT AND PROPHYLAXIS OF HEPATITIS B VIRUS DISEASE” (priority 2018, published 2021).

The test relates to HBeAg level in HepDES19 cells (surrogate marker for cccDNA). Description: Engineered HepDES19 primary screen assay (HBeAg as surrogate marker for cccDNA). The format is cell-based, HBV. The settings on record: Hepatitis B virus, HepDES19, 120 h, read-out: IC50 (HBeAg level, HepDES19 primary screen assay). The source says: The assay was employed to screen for novel cccDNA inhibitors. HepDES19 is a cccDNA-producing cell line. In this cell line, HBeAg in the cell culture supernatant as surrogate marker, as HBeAg production depends on cccDNA level and activity. HepDES19 is an engineered cell line which contains a 1.1 unit length HBV genome, and pgRNA transcription from the transgene is controlled by Tetracycline (Tet). In the absence of Tet, pgRNA transcription will be induced, but HBV e antigen (HBeAg) could not be produced from this pgRNA due to very short leader sequence before the HBeAg start codon and the start codon is disrupted. Only after cccDNA is formed, the missing leader sequence and start codon mutation would be restored from the 3′-terminal redundancy of pgRNA, and then HBeAg could be synthesized. Therefore, HBeAg could be used as a surrogate marker for cccDNA (Zhou, T. et al., Antiviral Res. (2006), 72(2), 116-124; Guo, H. et al., J. Virol. (2007), 81(22), 12472-12484).
HepDES19 cells were seeded at 2×10^6 cells per T150 flask and cultured with the culture medium (Dulbecco's Modified Eagle Medium: Nutrient Mixture F-12 [DMEM-F12, Gibco Cat. 11320-82], 10% Fetal Bovine Serum [FBS, Clontech Cat. 631101], 0.1 mM Non-Essential Amino Acids Solution [NEAA, Gibco Cat. 11140-050], 50 μg/mL Penicillin-Streptomycin [PS, Invitrogen Cat. 15140-163], 500 μg/mL Geneticin [G418, Invitrogen Cat. 10131-027]) containing 3 μg/mL Tet (Sigma, Cat. 87128) for 5 days. Cells were then seeded at 4×10^6 cells per T150 in the same culture medium as described above in the absence of Tet for 8 days. Cells were then harvested and frozen at density of 2×10^6 cells per mL. For compound testing, the frozen cells were thawed and seeded into 96-well plates at a density of 6×10^4 cells per well. At 24 hours after seeding, half log serial dilutions of compounds made with Dimethyl sulfoxide (DMSO, Sigma, Cat. D2650) were further diluted with the same culture medium as described above before they were added to the cells to reach desired final compound concentrations and 1% DMSO concentration. Plates were then incubated at 37° C. for another 5 days before measurement of HBeAg level and cell viability. Intracellular HBeAg level were measured with enzyme-linked immunosorbent assay (ELISA) kit (Shanghai Kehua Diagnostic Medical Products Co., Ltd). Cell viability was assessed using Cell Counting Kit-8 (Donjindo, Cat. CK04-20). IC50 values were derived from the dose-response curve using 4 parameter logistic curve fit method.
The compounds of the present invention were tested for their capacity to inhibit extracellular HBeAg level as described herein.

A word on the IC50: it is the concentration that inhibits the measured activity by half. With `O=c1c2c(oc3c(Cl)cccc13)CN(Cc1ccccc1)CC2` [Example 2, 2-benzyl-9-chloro-3,4-dihydro-1H-chromeno[2,3-c]pyridin-5(2H)-one], the IC50 came out at 49.8 µM. Consider `COC(=O)c1cccc(CN2CCc3c(oc4c(Cl)cccc4c3=O)C2)c1` [Example 3, methyl 3-((9-chloro-5-oxo-3,4-dihydro-1H-chromeno[2,3-c]pyridin-2(5H)-yl)methyl)benzoate], for which the IC50 stood at 30.7 µM. With `O=C(c1ccccc1F)N1CCc2c(oc3c(Cl)cccc3c2=O)C1` [Example 4, 9-chloro-2-(2-fluorobenzoyl)-3,4-dihydro-1H-chromeno[2,3-c]pyridin-5-one] the figure was 23.4 µM; with `COc1ccc(CN2CCc3c(oc4c(Cl)cccc4c3=O)C2=O)cc1` [Example 5, 9-chloro-2-[(4-methoxyphenyl)methyl]-3,4-dihydrochromeno[2,3-c]pyridine-1,5-dione], 26 µM; with `O=C(c1nccc2ccccc12)N1CCc2c(oc3c(Cl)cccc3c2=O)C1` [Example 6, 9-chloro-2-(isoquinoline-1-carbonyl)-3,4-dihydro-1H-chromeno[2,3-c]pyridin-5(2H)-one], 21.6 µM. Turning to `O=C(Nc1ccccc1F)N1CCc2c(oc3c(Cl)cccc3c2=O)C1` [Example 7, 9-chloro-N-(2-fluorophenyl)-5-oxo-3,4-dihydro-1H-chromeno[2,3-c]pyridine-2(5H)-carboxamide], the IC50 came to 39.8 µM. As to `COC(=O)c1cccc(N2CCc3c(oc4c(Cl)cccc4c3=O)C2=O)c1` [Example 8, methyl 3-(9-chloro-1,5-dioxo-3,4-dihydro-1H-chromeno[2,3-c]pyridin-2(5H)-yl)benzoate], the IC50 is 0.23 µM. With `COC(=O)c1ccc(N2CCc3c(oc4c(Cl)cccc4c3=O)C2=O)cc1` [Example 10, methyl 4-(9-chloro-1,5-dioxo-3,4-dihydro-1H-chromeno[2,3-c]pyridin-2(5H)-yl)benzoate] the figure was 7.78 µM. With `O=C(O)C1CC(Oc2ccc(N3CCc4c(oc5c(Cl)cccc5c4=O)C3=O)cc2)C1` (stereo not shown) [Example 11, 3-(4-(9-chloro-1,5-dioxo-3,4-dihydro-1H-chromeno[2,3-c]pyridin-2(5H)-yl)phenoxy)cyclobutanecarboxylic Acid] the figure was 19 µM; with `COC(=O)c1ccc(N2CCc3c(oc4c(Cl)cccc4c3=O)C2)nc1` [Example 13, methyl 6-(9-chloro-5-oxo-3,4-dihydro-1H-chromeno[2,3-c]pyridin-2(5H)-yl)nicotinate], 41.6 µM; with `O=C1c2oc3c(Cl)cccc3c(=O)c2CCN1c1ccc(Br)cc1` [Example 15, 2-(4-bromophenyl)-9-chloro-3,4-dihydro-2H-chromeno[2,3-c]pyridine-1,5-dione], 10.5 µM.

For the compound `O=C1c2oc3c(Cl)cccc3c(=O)c2CCN1c1cccc(OC(F)(F)F)c1` [Example 21, 9-chloro-2-(3-(trifluoromethoxy)phenyl)-3,4-dihydro-2H-chromeno[2,3-c]pyridine-1,5-dione], the IC50 is 47.5 µM.

As to `COC(=O)c1cc(N2CCc3c(oc4c(Cl)cccc4c3=O)C2=O)ccc1Cl` [Example 24, methyl 2-chloro-5-(9-chloro-1,5-dioxo-1,3,4,5-tetrahydro-2H-chromeno[2,3-c]pyridin-2-yl)benzoate], the IC50 was found to be 46.1 µM. With `N#Cc1ccc(N2CCc3c(oc4c(Cl)cccc4c3=O)C2=O)cc1` [Example 30, 4-(9-chloro-1,5-dioxo-1,3,4,5-tetrahydro-2H-chromeno[2,3-c]pyridin-2-yl)benzonitrile], the 50% inhibitory concentration (IC50) was found to be 32.5 µM. `Cc1ccc(C)c(N2CCc3c(oc4c(Cl)cccc4c3=O)C2=O)c1` [Example 31, 9-chloro-2-(2,5-dimethylphenyl)-3,4-dihydro-2H-chromeno[2,3-c]pyridine-1,5-dione]: the IC50 is 7.13 µM. As to `O=C1c2oc3c(Cl)cccc3c(=O)c2CCN1c1ccc(OC(F)(F)F)cc1Cl` [Example 32, 9-chloro-2-(2-chloro-4-(trifluoromethoxy)phenyl)-3,4-dihydro-2H-chromeno[2,3-c]pyridine-1,5-dione], the IC50 is 10.8 µM.

As to `O=C1c2oc3c(Cl)cccc3c(=O)c2CCN1c1ccc(OC(F)(F)F)cc1` [Example 33, 9-chloro-2-(4-(trifluoromethoxy)phenyl)-3,4-dihydro-2H-chromeno[2,3-c]pyridine-1,5-dione], the IC50 came out at 1.84 µM. Regarding `Cc1ccc(N2CCc3c(oc4c(Cl)cccc4c3=O)C2=O)cc1` [Example 34, 9-chloro-2-(p-tolyl)-3,4-dihydro-2H-chromeno[2,3-c]pyridine-1,5-dione], the IC50 was determined as 6.01 µM. With `COC(=O)c1cc(Cl)ccc1N1CCc2c(oc3c(Cl)cccc3c2=O)C1=O` [Example 36, methyl 5-chloro-2-(9-chloro-1,5-dioxo-1,3,4,5-tetrahydro-2H-chromeno[2,3-c]pyridin-2-yl)benzoate] the figure was 21.6 µM. With `N#Cc1cc(Cl)ccc1N1CCc2c(oc3c(Cl)cccc3c2=O)C1=O` [Example 37, 5-chloro-2-(9-chloro-1,5-dioxo-1,3,4,5-tetrahydro-2H-chromeno[2,3-c]pyridin-2-yl)benzonitrile] the figure was 12.2 µM; with `Cc1cc(Cl)ccc1N1CCc2c(oc3c(Cl)cccc3c2=O)C1=O` [Example 38, 9-chloro-2-(4-chloro-2-methylphenyl)-3,4-dihydro-2H-chromeno[2,3-c]pyridine-1,5-dione], 2.12 µM; with `O=c1c2c(oc3c(Cl)cccc13)CN(c1ccc(Cl)cc1)CC2` [Example 42, 9-chloro-2-(4-chlorophenyl)-1,2,3,4-tetrahydro-5H-chromeno[2,3-c]pyridin-5-one], 4.26 µM. For `O=C1c2oc3c(Cl)cccc3c(=O)c2CCN1c1ncc(Cl)cc1C(F)(F)F` [Example 43, 9-chloro-2-(5-chloro-3-(trifluoromethyl)pyridin-2-yl)-3,4-dihydro-2H-chromeno[2,3-c]pyridine-1,5-dione], the IC50 came to 30.1 µM.

Take `O=C1c2oc3c(Cl)cccc3c(=O)c2CCN1c1ccc(Cl)cc1Br` [Example 44, 2-(2-bromo-4-chlorophenyl)-9-chloro-3,4-dihydro-2H-chromeno[2,3-c]pyridine-1,5-dione]: the IC50 was 6.22 µM. Under `COc1ccc(COc2cc(Cl)cnc2N2CCc3c(oc4c(Cl)cccc4c3=O)C2=O)cc1` [Example 45, 9-chloro-2-(5-chloro-3-((4-methoxybenzyl)oxy)pyridin-2-yl)-3,4-dihydro-2H-chromeno[2,3-c]pyridine-1,5-dione] stands 6.24 µM. As for `COCOc1cc(Cl)ccc1N1CCc2c(oc3c(Cl)cccc3c2=O)C1=O` [Example 46, 9-chloro-2-(4-chloro-2-(methoxymethoxy)phenyl)-3,4-dihydro-2H-chromeno[2,3-c]pyridine-1,5-dione], the IC50 was 9.84 µM. For `O=C(c1cc(Cl)ccc1N1CCc2c(oc3c(Cl)cccc3c2=O)C1=O)N1CCCC1` [Example 47, 9-chloro-2-(4-chloro-2-(pyrrolidine-1-carbonyl)phenyl)-3,4-dihydro-2H-chromeno[2,3-c]pyridine-1,5-dione], the IC50 amounted to 3.29 µM. With `CCOc1cc(Cl)ccc1N1CCc2c(oc3c(Cl)cccc3c2=O)C1=O` [Example 48, 9-chloro-2-(4-chloro-2-ethoxyphenyl)-3,4-dihydro-2H-chromeno[2,3-c]pyridine-1,5-dione] the figure was 6.9 µM. Regarding `O=c1c2c(oc3c(Cl)cccc13)CN(c1ccc(Cl)c(Cl)c1)CC2` [Example 49, 9-chloro-2-(3,4-dichlorophenyl)-1,2,3,4-tetrahydro-5H-chromeno[2,3-c]pyridin-5-one], the IC50 worked out at 40.1 µM.

On to `COCc1cc(Cl)ccc1N1CCc2c(oc3c(Cl)cccc3c2=O)C1=O` [Example 50, 9-chloro-2-(4-chloro-2-(methoxymethyl)phenyl)-3,4-dihydro-2H-chromeno[2,3-c]pyridine-1,5-dione], for which the IC50 was found to be 26.4 µM. With `COc1ccc(N2Cc3c(oc4c(Cl)cccc4c3=O)C2=O)cc1` [Example 52, 5-chloro-2-(4-methoxyphenyl)-1H-chromeno[2,3-c]pyrrole-3,9-dione] the figure was 37.7 µM.
